# Assays:
# Prothrombin [1] = biological target: T1, Prothrombin (Homo sapiens, UniProt P00734); experiment: Inhibition of thrombin-catalyzed hydrolysis of a standard substrate
# Prothrombin [2] = biological target: T1, Prothrombin; experiment: Binding affinity towards thrombin was determined
# Serine protease 1 = Serine protease 1 (Homo sapiens, UniProt P07477); experiment: Binding affinity towards trypsin was determined
# Serine protease 1, sequence (P07477 whole entry): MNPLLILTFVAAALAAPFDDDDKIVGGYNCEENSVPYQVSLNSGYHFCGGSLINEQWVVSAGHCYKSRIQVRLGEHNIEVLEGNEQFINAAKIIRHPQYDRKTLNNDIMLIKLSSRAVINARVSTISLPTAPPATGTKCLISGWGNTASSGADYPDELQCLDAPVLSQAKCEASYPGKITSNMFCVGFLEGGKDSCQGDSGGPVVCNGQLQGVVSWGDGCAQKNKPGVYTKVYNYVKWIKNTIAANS
IC50 (Prothrombin [1]),SMILES,Ki (Prothrombin [2]),Ki (Serine protease 1)
230 nM,COc1ccccc1CCC(=O)N1CCC[C@H]1C(=O)NCC1CCC(N)CC1 (some centres not stated),,
106 nM,NC1CCC(CNC(=O)[C@@H]2CCCN2C(=O)CC2c3ccccc3-c3ccccc32)CC1 (some centres not stated),,
120 nM,NC1CCC(CNC(=O)[C@@H]2CCCN2C(=O)C23CC4CC(CC(C4)C2)C3)CC1 (some centres not stated),,
100 nM,NC1CCC(CNC(=O)[C@@H]2CCCN2C(=O)C2COc3ccccc3O2)CC1 (some centres not stated),75 nM,
380 nM,NC1CCC(CNC(=O)[C@@H]2CCCN2C(=O)C2c3ccccc3-c3ccccc32)CC1 (some centres not stated),,
5 nM,CCCCC(CC(=O)N1CCC[C@H]1C(=O)NCC1CCC(N)CC1)c1ccccc1 (some centres not stated),,
6 nM,CN[C@H](Cc1ccccc1)C(=O)N1CCC[C@H]1C(=O)NC[C@H]1CC[C@H](N)CC1,4.9 nM,
50 nM,COc1cc(CC(=O)N2CCC[C@H]2C(=O)NCC2CCC(N)CC2)cc(OC)c1OC (some centres not stated),,
910 nM,NC1CCC(CNC(=O)[C@@H]2CCCN2C(=O)C2CCc3ccccc3C2)CC1 (some centres not stated),,
190 nM,NC1CCC(CNC(=O)[C@@H]2CCCN2C(=O)C2CC2(c2ccccc2)c2ccccc2)CC1 (some centres not stated),,
57 nM,NC1CCC(CNC(=O)[C@@H]2CCCN2C(=O)C(Cc2ccccc2)c2ccccc2)CC1 (some centres not stated),,
60 nM,CN1C(=O)C[C@@H](c2cccnc2)[C@@H]1C(=O)N1CCC[C@H]1C(=O)NCC1CCC(N)CC1 (some centres not stated),,
90 nM,NC1CCC(CNC(=O)[C@@H]2CCCN2C(=O)C2CC(=O)N3CCc4ccccc4C23)CC1 (some centres not stated),,
140 nM,N#C/C(=C\c1ccccc1)C(=O)N1CCC[C@H]1C(=O)NCC1CCC(N)CC1 (some centres not stated),,

SMILES,IC50 (Prothrombin [1]),Ki (Prothrombin [2]),Ki (Serine protease 1)
COc1cc(C(O)C(=O)N2CCC[C@H]2C(=O)NCC2CCC(N)CC2)ccc1O (some centres not stated),11 nM,2.5 nM,
NC1CCC(CNC(=O)[C@@H]2CCCN2C(=O)C(Cc2ccc(O)cc2)c2ccccc2)CC1 (some centres not stated),10 nM,2.5 nM,
N[C@H]1CC[C@H](CNC(=O)[C@@H]2CCCN2C(=O)C2(O)c3ccccc3-c3ccccc32)CC1,4 nM,,860 nM

# From ChEMBL document CHEMBL1131597, “Discovery and development of the novel potent orally active thrombin inhibitor N-(9-hydroxy-9-fluorenecarboxy)prolyl trans-4-aminocyclohexylmethyl amide (L-372,460): coapplication of structure-based design and rapid multiple analogue synthesis on solid support” (J Med Chem, 1998)
